According to article PMC8944987, “In Vivo Efficacy of SQ109 against Leishmania donovani, Trypanosoma spp. and Toxoplasma gondii and In Vitro Activity of SQ109 Metabolites” (Biomedicines, 2022):
pEC50, pIC50: −log10 of the molar value. “Also recorded” adds a separate entry of the source. Like-named read-outs stand apart in the source and are kept apart here.

Assays:
[1] = system: L. mexicana promastigotes; design: method as in PMID 27458218; details: cited from earlier work
[2] = system: T. b. brucei Lister strain 427 bloodstream form (BSF); assay: In vitro activity assay for T. brucei (resazurin growth inhibition); assay type: cell-based; details: Trypanosoma brucei
[3] = system: L. donovani intracellular amastigotes; design: method as in PMID 31897791; details: J774 macrophages as host cells; cited from earlier work
T. gondii tachyzoites = assay: In vitro activity assay for T. gondii (td-tomato tachyzoites in hTert fibroblasts); assay type: cell-based; details: Toxoplasma gondii, Fibroblast; human fibroblasts (hTert), fluorescence 3 to 4 days; Figure 6A; read-out: IC50, T. gondii cell growth inhibition (intracellular tachyzoite assay)
Procedure: We used a parasite strain expressing red fluorescent protein (td-tomato) for in vitro drug testing. Tachyzoites were maintained in human fibroblasts (hTert cells). Human fibroblasts were cultured in 96-well plates for 24 h prior to the addition of 4000 fluorescent tachyzoites/well. Fluorescence values were measured for 3 to 4 days, and both excitation (544 nm) and emission (590 nm) were read from the bottom of the plates in a Molecular Devices (Molecular Devices, LLC, CA, USA) plate reader.

[4] = system: intracellular T. cruzi Dm28c amastigotes in U2OS; assay: T. cruzi intracellular amastigotes assay in U2OS (image based); assay type: cell-based; details: Trypanosoma cruzi
Procedure: (§1) U2OS human osteosarcoma cells were maintained in DMEM supplemented with high glucose, 10% FBS, and 1% P/S at 37 °C with 5% CO2 in air. […] Cell images were acquired by an automated image analyzer (Operetta, Perkin Elmer Technology, Waltham, MA, USA); analysis included at least 1000 cells in five fields per well. For the imaging of infected cells and parasites, Draq-5 was observed under a 20× air objective. An image analysis algorithm (Columbus, Perkin Elmer Technology) was used to detect the Draq-5 signal in the nuclei of cells and parasites as described in a previous article and shown in Supplementary Figure S1 [20]. The number of parasites was defined by the value of the number of parasites in infected cells of the acquired image.

T. cruzi trypomastigotes = system: T. cruzi trypomastigotes; design: method as in PMID 25583723; details: cited from earlier work
[5] = Adverse effects observed during the in vivo experiments; design: species or system mice; details: tested doses (20 to 100 mg/kg)
[6] = Reported plasma protein binding; assay type: in vitro ADME, mice; details: from the reported plasma protein binding
[7] = Reported tissue (liver) accumulation on repeated oral dosing; assay type: in vivo; details: assuming the same volume-to-mass ratio, 28-day oral dosing, 10 mg/kg, from ref 30, read-out: SQ109 liver concentration
[8] = cited from earlier work
[9] = in vivo, 25 mg/kg; cited from earlier work
[10] = Host cell toxicity in the T. cruzi amastigote assay; assay type: cell-based; details: human
Procedure: as §1

[11] = system: Plasmodium falciparum mature gametocytes (stage IV/V); design: method as in PMID 33431834; details: cited from earlier work
[12] = system: T. cruzi Dm28c epimastigotes; assay: T. cruzi epimastigotes assay (resazurin); assay type: cell-based; details: Trypanosoma cruzi
Procedure: The exponential growth phase of epimastigotes were treated with different concentrations of drugs or 0.1% DMSO as negative control and incubated for 3 days at 28 °C. The viability of parasites was quantified with resazurin as described in the T. brucei assay.

[13] = system: THP-1 human monocyte cell line; assay: Host cell toxicity in the L. donovani amastigote assay; assay type: cell-based; details: 3 days of compound incubation; Figure 2F
Procedure: The THP-1 human monocyte cell line was grown in RPMI-1640 medium (Welgene, Gyeongsangbuk-do, Republic of Korea) supplemented with 10% FBS and 1% P/S. For differentiation, THP-1 cells were treated for 3 days with 50 ng/mL of PMA [20]. […] An image analysis was performed as described in the T. cruzi assay (Figure S2).

[14] = design: method as in PMID 16432511; details: in mice; cited from earlier work
T. cruzi Dm28c = assay: T. cruzi acute in vivo mouse model; design: species or system BALB/c mice
Description: BALB/c mice were infected with TCT of T. cruzi Dm28c (10^7 cells) by i.p. injection. Five days post-infection, infected mice were sacrificed to collect BSF of T. cruzi. BALB/c mice were intraperitoneally infected with BSF of T. cruzi Dm28c (5 × 10^4 cells). Five days post-infection, BALB/c mice were infected with previously collected 2nd-round BSF cells (3 × 10^4 cells). Mice were divided into groups (n = 10) and treated orally with drugs for 5 consecutive days for 2 weeks by starting from day 2 post-infection administration of DPBS, 100 mg/kg of benznidazole, or 100 mg/kg of SQ109 via p.o. route, respectively. Parasitemia was evaluated every 2 days for 5 weeks by blood collection from the mouse tail vein, and survival was monitored for 2 months. Mice showing impaired health status were euthanized.

T. b. brucei Lister 427 = assay: T. brucei acute in vivo mouse model; design: species or system BALB/c mice
L. donovani amastigotes = assay: L. donovani (VL) in vivo mouse model, liver LDU; design: species or system BALB/c mice; details: for parasite burden in liver (LDU): 5 days of treatment; for reduction of parasite burden: versus vehicle-treated group
Procedure: BALB/c mice (n = 5) were injected with 2 × 10^7 hamster spleen-derived L. donovani amastigotes via the retro-orbital venous sinus route. From day 7 post-infection, groups of mice were treated using the drug vehicle only, miltefosine (30 mg/kg), or SQ109 (30, 50, 100 mg/kg). On day 16 post-infection, all animals were humanely euthanized and assessed microscopically using Giemsa-stained liver imprints. […] The LDU values for the drug-treated samples were compared to those of the untreated samples.

[15] = 100 mg/kg oral gavage, q.d. for 2 weeks

SMILES: CC(C)=CCC/C(C)=C/CNCCNC1C2CC3CC(C2)CC1C3 (stereo not drawn) [SQ109, N-adamantan-2-yl-N’-((E)-3,7-dimethyl-octa-2,6-dienyl)-ethane-1,2-diamine]
- pIC50 [1]: ~6.30
- EC50 ([2]; bloodstream forms, read-out: T. brucei BSF EC50 (converted)): 810 nM
- pIC50 ([2]; 3 days (72 h) of compound incubation, Figure 2A, read-out: IC50, T. brucei trypomastigote viability): 6.49
- pIC50 [3]: 8.14
- pIC50 (T. gondii tachyzoites): 5.74
- pIC50 ([4]; 72 h, U2OS host cells, 3 days of compound incubation, Figure 2D, read-out: IC50, intracellular T. cruzi amastigote survival): 6.21
- pEC50 ([4]; amastigotes in U2OS, read-out: T. cruzi Dm28c EC50 (AMA)): 5.96
- pIC50 (T. cruzi trypomastigotes): 7.30
- adverse effects throughout the in vivo experiments [5]: did not observe any adverse effects
- free-drug fraction expected in mice plasma [6]: ~ 90%
- concentration at 28 days [7]: ~6 µM
- maximum tolerated dose (MTD) [8]: 600 mg/kg
- t1/2 (terminal phase) [9]: 5.2 h
- CC50 at 3 days ([10]; 3 days of compound incubation, Figure 2D, read-out: half-maximal cytotoxic concentration (CC50) against the host U2OS): 2950 nM
- CC50 at 3 days ([10]; amastigote host cells, read-out: T. cruzi Dm28c CC50 (U2OS)): 3600 nM
- pIC50 [11]: 6.98
- pIC50 ([12]; 72 h, Figure 2C, read-out: IC50, T. cruzi epimastigote growth inhibition (resazurin reduction)): 4.90
- pEC50 ([12]; epimastigotes, read-out: T. cruzi Dm28c EC50 (EPI)): 5.35
- host cell (THP-1) toxicity: concentration up to which none was observed [13]: > 10 µM
- plasma protein binding [14]: 5.8–8.5%
- delay of the peak of parasitemia compared to the vehicle control (T. cruzi Dm28c; [15]): 4 days
- peak of parasitemia (T. cruzi Dm28c; [15]): 18 days post-infection
- parasite reduction at the peak of parasitemia of the vehicle group (T. cruzi Dm28c; 100 mg/kg oral gavage, q.d. for 2 weeks, 14 days post-infection): 46.1%
- survival of T. cruzi infected mice (T. cruzi Dm28c; 100 mg/kg p.o., 40 days post-infection): 80%
- extended survival compared to the vehicle control (T. b. brucei Lister 427; 30 mg/kg, q.d. for 5 days, p.o.): 3.4 days
- average day of survival (T. b. brucei Lister 427; 30 mg/kg, q.d. for 5 days, p.o., T. brucei infected BALB/c mice): 8.6 days
- average days of extended survival compared to the vehicle control (T. b. brucei Lister 427; 100 mg/kg, q.d. for 5 days, p.o.): 3.6 days
- parasitemia in blood, in words (T. b. brucei Lister 427; 30 or 100 mg/kg p.o. for 5 days, Figure 3B): parasitemia rapidly increased after the termination of SQ109 administration; also recorded: not able to completely clear the parasites in the bloodstream
- parasite burden in liver (LDU) (L. donovani amastigotes; 30 mg/kg): 1060 ± 110 LDU
- parasite burden in liver (LDU) (L. donovani amastigotes; 50 mg/kg): 772 ± 89 LDU
- reduction of parasite burden (L. donovani amastigotes; 50 mg/kg): 31.8%
- parasite burden in liver (LDU) (L. donovani amastigotes; 100 mg/kg): 737 ± 145 LDU
- reduction of parasite burden (L. donovani amastigotes; 100 mg/kg): 34.9%
